Data: US20210047324A1 (Aptinyx Inc., priority 2018, published 2021)

Legend:
NMDAR2B = target: T1, NMDAR2B (Homo sapiens, UniProt Q13224); experiment: NMDAR agonist assay, [3H]MK-801 binding, NMDAR2B expressing HEK cell membranes; format: biochemical; settings: 50 μM glutamate
T1 construct: expressed in transfected cells; host or cells: HEK cells (membrane extract)
In short: (§1)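 Membranes from HEK cells (300 μg protein) preincubated 15 min with 50 μM glutamate plus compound (1×10^−15–1×10^−7 M) or 1 mM glycine, then with 0.3 μCi [3H]MK-801 for 15 min at 25° C. (nonequilibrium); filter-bound DPM, baseline-subtracted, expressed as % of 1 mM glycine; EC50 and % maximum from three-parameter fit.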

[1] = Oral pharmacokinetics in Sprague Dawley rats (plasma, brain, CSF); format: in vivo; settings: rat, 10 mg/kg
Procedure: In another experiment, Sprague Dawley rats were dosed per os (oral gavage) using a normal saline formulation containing 10 mg/kg of the compounds identified in the table below. Plasma, brain, and CSF samples were analyzed at various time points over a 24 hour period. The table below summarizes the results of the oral pharmacokinetics, where the first three values (Tmax, Cmax and AUClast) are plasma values.

[2] = IV pharmacokinetics in Sprague Dawley rats; format: in vivo; settings: Sprague-Dawley, rat, in vivo, iv, 2 mg/kg, normal saline
Procedure: Sprague Dawley rats were dosed intravenously using a normal saline formulation containing 2 mg/kg of the compounds identified in the below table. The table below summarizes the results of the IV pharmacokinetics.

NMDAR2C = target: T2, NMDAR2C (Homo sapiens, UniProt Q14957); experiment: NMDAR agonist assay, [3H]MK-801 binding, NMDAR2C expressing HEK cell membranes; format: biochemical; settings: 50 μM glutamate; relative to 1 mM glycine
T2 construct: expressed in transfected cells; host or cells: HEK cells (membrane extract)
Procedure: Assays were conducted as described by Moskal et al., “GLYX-13: a monoclonal antibody-derived peptide that acts as an N-methyl-D-aspartate receptor modulator,” Neuropharmacology, 49, 1077-87, 2005. These studies were designed to determine if the test compounds act to facilitate NMDAR activation in NMDAR2A, NMDAR2B, NMDAR2C or NMDAR2D expressing HEK cell membranes as measured by increases in [^3H]MK-801 binding.
In the assay, 300 μg of NMDAR expressing HEK cell membrane extract protein was preincubated for 15 minutes at […] in the presence of saturating concentrations of glutamate (50 μM) and varying concentrations of test compound (1×10^−15M-1×10^−7M), or 1 mM glycine. Following the addition of 0.3 μCi of [3H]MK-801 (22.5 Ci/mmol), reactions were again incubated for 15 minutes at 25° C. (nonequilibrium conditions). Bound and free [3H]MK-801 were separated via rapid filtration using a Brandel apparatus.
In analyzing the data, the DPM (disintegrations per minute) of [3H]MK-801 remaining on the filter were measured for each concentration of test compound or for 1 mM glycine. The DPM values for each concentration of a ligand (N=2) were averaged. The baseline value was determined from the best fit curve of the DPM values modeled using the GraphPad program and the log(agonist) vs. response (three parameters) algorithm was then subtracted from all points in the dataset. The % maximal [^3H]MK-801 binding was then calculated relative to that of 1 mM glycine: all baseline subtracted DPM values were divided by the average value for 1 mM glycine. The EC50 and % maximal activity were then obtained from the best fit curve of the % maximal [3H]MK-801 binding data modelled using the GraphPad program and the log(agonist) vs. response (three parameters) algorithm.
The tables below summarize the results for the wild type […] NMDAR2A, NMDAR2B, NMDAR2C, and NMDAR2D, and whether the compound is not an agonist (−), is an agonist (+), or is a strong agonist (++), where column A is based on the % maximal [3H]MK-801 binding relative to 1 mM glycine (−=0; <100%=+; and >100%=++); and column B is based on log EC50 values (0=−; ≥1×10^−9 M (e.g., −8)=+; and <1×10^−9 M (e.g., −10)=++).

Plasma stability (Rat) = format: in vitro ADME; settings: after 60 minutes
Procedure: Plasma stability of disclosed compounds was investigated. The following table indicates the percent of compound remaining after 60 minutes.

NMDAR2A = target: T3, NMDAR2A (Homo sapiens, UniProt Q12879); experiment: NMDAR agonist assay, [3H]MK-801 binding, NMDAR2A expressing HEK cell membranes; format: biochemical; settings: 50 μM glutamate
T3 construct: expressed in transfected cells; host or cells: HEK cells (membrane extract)
In short: as §1

Sprague Dawley rats = experiment: Porsolt forced swim test; format: in vivo

T3 sequence (Q12879 23-1464, species assumed, other chains not shown): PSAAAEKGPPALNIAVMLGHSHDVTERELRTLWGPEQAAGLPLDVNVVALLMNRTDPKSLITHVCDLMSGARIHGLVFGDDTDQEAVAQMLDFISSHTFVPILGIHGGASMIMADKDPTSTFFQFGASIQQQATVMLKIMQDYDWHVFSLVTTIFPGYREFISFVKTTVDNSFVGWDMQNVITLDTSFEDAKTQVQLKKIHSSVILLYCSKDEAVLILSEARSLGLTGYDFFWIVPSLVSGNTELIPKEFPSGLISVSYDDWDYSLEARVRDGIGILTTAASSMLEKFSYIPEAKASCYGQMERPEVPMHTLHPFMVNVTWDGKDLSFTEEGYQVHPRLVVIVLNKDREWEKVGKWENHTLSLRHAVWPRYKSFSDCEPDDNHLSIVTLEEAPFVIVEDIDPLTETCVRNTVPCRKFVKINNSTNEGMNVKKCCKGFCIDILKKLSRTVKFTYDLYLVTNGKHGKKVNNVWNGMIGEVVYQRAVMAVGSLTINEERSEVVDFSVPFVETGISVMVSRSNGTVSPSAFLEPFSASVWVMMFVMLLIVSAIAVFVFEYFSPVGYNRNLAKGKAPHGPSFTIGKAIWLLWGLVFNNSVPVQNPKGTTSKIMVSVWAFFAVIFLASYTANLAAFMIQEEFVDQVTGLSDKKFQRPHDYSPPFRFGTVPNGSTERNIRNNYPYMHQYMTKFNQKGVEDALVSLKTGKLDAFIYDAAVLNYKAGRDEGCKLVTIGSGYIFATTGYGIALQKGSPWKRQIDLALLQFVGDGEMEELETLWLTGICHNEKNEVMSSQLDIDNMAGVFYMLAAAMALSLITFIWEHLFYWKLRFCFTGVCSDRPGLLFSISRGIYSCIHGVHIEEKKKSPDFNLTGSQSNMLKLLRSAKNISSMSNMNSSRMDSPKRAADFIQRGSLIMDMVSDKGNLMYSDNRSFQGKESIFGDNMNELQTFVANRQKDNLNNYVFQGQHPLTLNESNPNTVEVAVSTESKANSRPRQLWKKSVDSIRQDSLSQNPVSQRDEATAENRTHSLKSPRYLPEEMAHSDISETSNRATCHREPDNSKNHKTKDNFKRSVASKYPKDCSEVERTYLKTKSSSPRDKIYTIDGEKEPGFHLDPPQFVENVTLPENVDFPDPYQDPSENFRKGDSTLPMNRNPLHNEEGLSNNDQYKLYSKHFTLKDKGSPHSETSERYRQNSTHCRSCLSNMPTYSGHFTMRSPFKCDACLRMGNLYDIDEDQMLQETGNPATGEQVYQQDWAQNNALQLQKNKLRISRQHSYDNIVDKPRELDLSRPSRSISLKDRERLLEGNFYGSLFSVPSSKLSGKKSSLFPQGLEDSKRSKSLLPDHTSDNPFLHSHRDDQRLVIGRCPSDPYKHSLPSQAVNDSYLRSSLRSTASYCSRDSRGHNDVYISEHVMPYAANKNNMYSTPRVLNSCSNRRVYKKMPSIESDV
T1 sequence (Q13224 27-1484, species assumed, other chains not shown): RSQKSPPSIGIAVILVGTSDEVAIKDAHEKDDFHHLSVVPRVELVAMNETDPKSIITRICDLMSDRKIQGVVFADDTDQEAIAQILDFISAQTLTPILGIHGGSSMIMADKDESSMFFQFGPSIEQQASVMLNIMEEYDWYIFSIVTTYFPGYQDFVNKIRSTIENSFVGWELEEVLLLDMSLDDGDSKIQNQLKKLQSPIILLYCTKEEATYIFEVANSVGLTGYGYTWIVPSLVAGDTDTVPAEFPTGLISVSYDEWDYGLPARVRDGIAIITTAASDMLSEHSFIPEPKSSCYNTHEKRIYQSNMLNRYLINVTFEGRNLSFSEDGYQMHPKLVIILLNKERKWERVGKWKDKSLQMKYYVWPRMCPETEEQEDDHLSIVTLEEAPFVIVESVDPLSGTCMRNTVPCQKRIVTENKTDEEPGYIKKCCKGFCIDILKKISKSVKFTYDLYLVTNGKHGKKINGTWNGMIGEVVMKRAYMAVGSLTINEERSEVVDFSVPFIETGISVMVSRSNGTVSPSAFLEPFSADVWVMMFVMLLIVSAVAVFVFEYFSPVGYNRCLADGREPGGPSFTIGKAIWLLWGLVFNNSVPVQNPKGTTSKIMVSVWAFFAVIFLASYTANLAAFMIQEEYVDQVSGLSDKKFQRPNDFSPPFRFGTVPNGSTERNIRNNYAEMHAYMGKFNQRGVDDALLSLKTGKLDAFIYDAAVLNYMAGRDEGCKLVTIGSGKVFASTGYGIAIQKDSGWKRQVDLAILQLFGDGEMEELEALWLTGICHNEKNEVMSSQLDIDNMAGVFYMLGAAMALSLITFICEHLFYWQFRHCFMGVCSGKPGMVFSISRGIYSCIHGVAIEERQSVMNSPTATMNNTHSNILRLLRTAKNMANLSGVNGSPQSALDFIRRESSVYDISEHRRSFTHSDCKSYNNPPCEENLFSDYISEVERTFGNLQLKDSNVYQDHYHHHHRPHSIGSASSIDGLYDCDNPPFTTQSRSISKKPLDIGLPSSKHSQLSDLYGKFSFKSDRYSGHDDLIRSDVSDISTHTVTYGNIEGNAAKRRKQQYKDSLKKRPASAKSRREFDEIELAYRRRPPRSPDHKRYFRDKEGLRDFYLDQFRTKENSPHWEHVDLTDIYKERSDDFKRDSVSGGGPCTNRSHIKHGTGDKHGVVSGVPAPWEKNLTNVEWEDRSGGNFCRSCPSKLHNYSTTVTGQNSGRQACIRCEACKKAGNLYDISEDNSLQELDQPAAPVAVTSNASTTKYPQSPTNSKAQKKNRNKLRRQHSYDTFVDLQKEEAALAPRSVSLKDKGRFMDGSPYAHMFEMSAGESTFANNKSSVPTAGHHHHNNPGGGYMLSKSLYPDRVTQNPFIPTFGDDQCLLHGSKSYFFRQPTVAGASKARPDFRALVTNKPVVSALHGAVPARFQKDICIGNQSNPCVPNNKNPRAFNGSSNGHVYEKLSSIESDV
T2 sequence (Q14957 20-1233, species assumed, other chains not shown): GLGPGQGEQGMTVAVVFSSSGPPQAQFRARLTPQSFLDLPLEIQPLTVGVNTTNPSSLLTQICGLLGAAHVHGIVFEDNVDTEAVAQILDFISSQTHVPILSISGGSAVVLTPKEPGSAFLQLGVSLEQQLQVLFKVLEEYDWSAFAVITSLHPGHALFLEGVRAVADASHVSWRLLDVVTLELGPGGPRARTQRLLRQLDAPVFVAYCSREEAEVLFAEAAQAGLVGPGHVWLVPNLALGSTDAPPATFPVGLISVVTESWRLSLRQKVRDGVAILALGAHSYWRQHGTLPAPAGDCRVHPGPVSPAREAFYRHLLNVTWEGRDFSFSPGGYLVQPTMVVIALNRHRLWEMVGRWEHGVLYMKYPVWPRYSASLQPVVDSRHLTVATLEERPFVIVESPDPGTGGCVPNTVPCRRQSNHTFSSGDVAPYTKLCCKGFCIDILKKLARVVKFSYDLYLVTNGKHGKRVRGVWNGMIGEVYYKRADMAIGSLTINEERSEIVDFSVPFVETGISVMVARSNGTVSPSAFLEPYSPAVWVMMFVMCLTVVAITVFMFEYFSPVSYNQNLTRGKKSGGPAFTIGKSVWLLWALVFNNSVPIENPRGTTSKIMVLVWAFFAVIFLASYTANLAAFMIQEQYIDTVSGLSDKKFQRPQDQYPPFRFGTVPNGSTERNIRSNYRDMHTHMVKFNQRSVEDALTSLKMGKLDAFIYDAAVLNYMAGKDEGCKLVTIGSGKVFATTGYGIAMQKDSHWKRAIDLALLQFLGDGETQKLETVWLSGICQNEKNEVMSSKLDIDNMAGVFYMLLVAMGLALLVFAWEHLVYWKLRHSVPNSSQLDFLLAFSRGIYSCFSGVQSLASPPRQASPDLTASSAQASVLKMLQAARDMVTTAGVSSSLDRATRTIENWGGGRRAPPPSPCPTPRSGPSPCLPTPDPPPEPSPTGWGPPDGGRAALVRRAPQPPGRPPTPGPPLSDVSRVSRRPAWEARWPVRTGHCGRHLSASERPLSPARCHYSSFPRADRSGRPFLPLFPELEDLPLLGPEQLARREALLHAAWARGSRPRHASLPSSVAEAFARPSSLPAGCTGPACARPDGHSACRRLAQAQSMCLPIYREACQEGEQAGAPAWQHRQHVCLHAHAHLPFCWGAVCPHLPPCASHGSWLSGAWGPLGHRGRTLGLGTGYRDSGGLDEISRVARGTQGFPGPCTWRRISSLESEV

EC50 (NMDAR2B; read-out: NMDAR2B B: log EC50 (converted)): ≥ 1 nM | Emax (NMDAR2B; relative to 1 mM glycine, read-out: NMDAR2B A: % maximal [3H]MK-801 binding relative to 1 mM glycine): < 100% | Tmax ([1]; Sprague-Dawley, po, per os, plasma, read-out: Tmax): 0.5 h | AUC(0-t) ([1]; Sprague-Dawley, plasma, po, per os): 3860 ng·h/mL | bioavailability ([1]; Sprague-Dawley, plasma, po, per os 10 mg/kg): 62% | Cmax ([1]; Sprague-Dawley, plasma, po, per os, plasma, read-out: Cmax): 1960 ng/mL | CSF Cmax ([1]; per os, CSF): 551.3 ng/mL | Brain Cmax ([1]; per os, brain): 3963.2 ng/mL | AUC(0-t) [2]: 1250 ng·h/mL | clearance [2]: 27 mL/min/kg | half-life [2]: 3.6 h | Cmax ([2]; read-out: Cmax): 1470 ng/mL | Vd ([2]; read-out: Vss): 3.92 L/kg | NMDAR2C A: % maximal [3H]MK-801 binding relative to 1 mM glycine (NMDAR2C): 0% | Plasma (Rat): percent of compound remaining (Plasma stability (Rat)): 100% | EC50 (NMDAR2A; read-out: NMDAR2A B: log EC50 (converted)): ≥ 1 nM | Emax (NMDAR2A; 0.25 h, relative to 1 mM glycine, read-out: NMDAR2A A: % maximal [3H]MK-801 binding relative to 1 mM glycine): < 100%
SMILES: O=C1NCC=CC[C@]12CCCN2 [GA, (R)-1,7-diazaspiro[4.6]undec-9-en-6-one]
% reduction in float time (Sprague Dawley rats; 1 wk post-dose, 0.00001 mg/kg): 55% | Significance vs. vehicle (Sprague Dawley rats; 1 wk post-dose, 0.00001 mg/kg): Yes | % reduction in float time (Sprague Dawley rats; 1 wk post-dose, 0.001 mg/kg): 71% | Significance vs. vehicle (Sprague Dawley rats; 1 wk post-dose, 0.001 mg/kg): Yes | % reduction in float time (Sprague Dawley rats; 1 wk post-dose, 0.1 mg/kg): 72% | Significance vs. vehicle (Sprague Dawley rats; 1 wk post-dose, 0.1 mg/kg): Yes | % reduction in float time (Sprague Dawley rats; 1 wk post-dose, 10.0 mg/kg): 44% | Significance vs. vehicle (Sprague Dawley rats; 1 wk post-dose, 10.0 mg/kg): Yes | % reduction in float time (Sprague Dawley rats; 1 h post-dose, 0.00001 mg/kg): 29% | Significance vs. vehicle (Sprague Dawley rats; 1 h post-dose, 0.00001 mg/kg): No | % reduction in float time (Sprague Dawley rats; 1 h post-dose, 0.001 mg/kg): 58% | Significance vs. vehicle (Sprague Dawley rats; 1 h post-dose, 0.001 mg/kg): Yes | % reduction in float time (Sprague Dawley rats; 1 h post-dose, 0.1 mg/kg): 67% | Significance vs. vehicle (Sprague Dawley rats; 1 h post-dose, 0.1 mg/kg): Yes | % reduction in float time (Sprague Dawley rats; 1 h post-dose, 10.0 mg/kg): 50% | Significance vs. vehicle (Sprague Dawley rats; 1 h post-dose, 10.0 mg/kg): No | % reduction in float time (Sprague Dawley rats; 24 h post-dose, 0.1 mg/kg): 64% | Significance vs. vehicle (Sprague Dawley rats; 24 h post-dose, 0.1 mg/kg): Yes
